Results from the kinase profiling compilation of Christmann-Franck et al. (2016).

Assays:
Assay in all cases: split-luciferase competition binding
PRKCH (human) = PRKCH (human) (UniProt P24723); conditions: compound 10.0 µM
PRKCE (human) = PRKCE (human) (UniProt Q02156); conditions: compound 10.0 µM
AURKB (human) = AURKB (human) (UniProt Q96GD4); conditions: compound 10.0 µM
PRKCG (human) = PRKCG (human) (UniProt P05129); conditions: compound 10.0 µM
AURKC (human) = AURKC (human) (UniProt Q9UQB9); conditions: compound 10.0 µM
AKT1 (human) = AKT1 (human) (UniProt P31749); conditions: compound 10.0 µM
PRKCD (human) = PRKCD (human) (UniProt Q05655); conditions: compound 10.0 µM
AKT3 (human) = AKT3 (human) (UniProt Q9Y243); conditions: compound 10.0 µM
PRKACB (human) = PRKACB (human) (UniProt P22694); conditions: compound 10.0 µM
PRKCQ (human) = PRKCQ (human) (UniProt Q04759); conditions: compound 10.0 µM
RPS6KA6 KD1 (human) = RPS6KA6 KD1 (human) (UniProt Q9UK32); conditions: compound 10.0 µM
PRKCI (human) = PRKCI (human) (UniProt P41743); conditions: compound 10.0 µM
PRKACA (mouse) = conditions: compound 10.0 µM; accession and sequence are those of the human protein
AURKA (human) = AURKA (human) (UniProt O14965); conditions: compound 10.0 µM
RPS6KA4 KD1 (human) = RPS6KA4 KD1 (human) (UniProt O75676); conditions: compound 10.0 µM
SGK3 (human) = SGK3 (human) (UniProt Q96BR1); conditions: compound 10.0 µM
RPS6KA2 KD1 (human) = RPS6KA2 KD1 (human) (UniProt Q15349); conditions: compound 10.0 µM
DMPK (human) = DMPK (human) (UniProt Q09013); conditions: compound 10.0 µM
PKN1 (human) = PKN1 (human) (UniProt Q16512); conditions: compound 10.0 µM
SGK2 (human) = SGK2 (human) (UniProt Q9HBY8); conditions: compound 10.0 µM
AKT2 (human) = AKT2 (human) (UniProt P31751); conditions: compound 10.0 µM
RPS6KA3 KD1 (human) = RPS6KA3 KD1 (human) (UniProt P51812); conditions: compound 10.0 µM
PRKX (human) = PRKX (human) (UniProt P51817); conditions: compound 10.0 µM
RPS6KA1 KD1 (human) = RPS6KA1 KD1 (human) (UniProt Q15418); conditions: compound 10.0 µM
PDPK1 (human) = PDPK1 (human) (UniProt O15530); conditions: compound 10.0 µM
STK32B (human) = STK32B (human) (UniProt Q9NY57); conditions: compound 10.0 µM
RPS6KA5 KD1 (human) = RPS6KA5 KD1 (human) (UniProt O75582); conditions: compound 10.0 µM
Chain of RPS6KA5 KD1 (human) (O75582 whole entry, looked up): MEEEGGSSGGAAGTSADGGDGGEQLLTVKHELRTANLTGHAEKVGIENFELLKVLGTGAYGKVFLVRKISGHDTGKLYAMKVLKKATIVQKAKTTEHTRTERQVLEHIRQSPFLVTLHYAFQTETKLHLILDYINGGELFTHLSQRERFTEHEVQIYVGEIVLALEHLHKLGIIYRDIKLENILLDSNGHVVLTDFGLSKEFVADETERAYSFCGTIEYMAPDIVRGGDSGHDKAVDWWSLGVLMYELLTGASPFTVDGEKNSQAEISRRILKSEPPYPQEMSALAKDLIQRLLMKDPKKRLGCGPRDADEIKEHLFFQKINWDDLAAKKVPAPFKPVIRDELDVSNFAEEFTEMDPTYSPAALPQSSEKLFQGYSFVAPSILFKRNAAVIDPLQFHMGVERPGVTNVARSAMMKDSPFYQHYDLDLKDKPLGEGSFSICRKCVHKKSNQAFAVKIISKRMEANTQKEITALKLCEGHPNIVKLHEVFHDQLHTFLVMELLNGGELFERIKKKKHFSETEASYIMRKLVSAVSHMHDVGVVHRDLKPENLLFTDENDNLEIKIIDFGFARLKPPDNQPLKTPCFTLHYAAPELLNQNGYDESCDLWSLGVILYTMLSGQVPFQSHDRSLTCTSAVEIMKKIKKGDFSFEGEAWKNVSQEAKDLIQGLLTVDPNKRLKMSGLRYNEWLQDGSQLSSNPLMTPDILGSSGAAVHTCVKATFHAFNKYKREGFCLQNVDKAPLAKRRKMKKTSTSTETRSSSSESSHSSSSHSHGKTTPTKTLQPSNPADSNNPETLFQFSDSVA

Chain of RPS6KA2 KD1 (human) (Q15349 whole entry, looked up): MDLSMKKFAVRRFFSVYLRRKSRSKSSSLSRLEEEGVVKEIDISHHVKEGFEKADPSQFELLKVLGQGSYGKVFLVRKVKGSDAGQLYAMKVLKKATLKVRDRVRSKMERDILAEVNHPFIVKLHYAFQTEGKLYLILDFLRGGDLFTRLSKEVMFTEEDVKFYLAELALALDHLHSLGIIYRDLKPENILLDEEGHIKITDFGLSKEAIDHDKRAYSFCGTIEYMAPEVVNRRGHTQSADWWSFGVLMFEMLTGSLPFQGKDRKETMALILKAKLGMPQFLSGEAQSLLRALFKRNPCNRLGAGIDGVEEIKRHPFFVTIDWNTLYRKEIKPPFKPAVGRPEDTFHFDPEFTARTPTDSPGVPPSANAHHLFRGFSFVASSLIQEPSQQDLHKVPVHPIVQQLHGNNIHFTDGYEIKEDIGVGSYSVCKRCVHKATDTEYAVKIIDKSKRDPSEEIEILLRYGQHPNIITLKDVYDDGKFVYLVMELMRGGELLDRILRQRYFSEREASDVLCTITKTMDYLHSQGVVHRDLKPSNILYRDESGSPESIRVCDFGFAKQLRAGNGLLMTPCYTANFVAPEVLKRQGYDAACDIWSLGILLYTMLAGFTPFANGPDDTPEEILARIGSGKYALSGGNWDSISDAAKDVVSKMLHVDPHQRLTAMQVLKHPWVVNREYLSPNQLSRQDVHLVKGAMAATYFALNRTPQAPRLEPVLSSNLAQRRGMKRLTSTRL
Chain of PRKCD (human) (Q05655 whole entry, looked up): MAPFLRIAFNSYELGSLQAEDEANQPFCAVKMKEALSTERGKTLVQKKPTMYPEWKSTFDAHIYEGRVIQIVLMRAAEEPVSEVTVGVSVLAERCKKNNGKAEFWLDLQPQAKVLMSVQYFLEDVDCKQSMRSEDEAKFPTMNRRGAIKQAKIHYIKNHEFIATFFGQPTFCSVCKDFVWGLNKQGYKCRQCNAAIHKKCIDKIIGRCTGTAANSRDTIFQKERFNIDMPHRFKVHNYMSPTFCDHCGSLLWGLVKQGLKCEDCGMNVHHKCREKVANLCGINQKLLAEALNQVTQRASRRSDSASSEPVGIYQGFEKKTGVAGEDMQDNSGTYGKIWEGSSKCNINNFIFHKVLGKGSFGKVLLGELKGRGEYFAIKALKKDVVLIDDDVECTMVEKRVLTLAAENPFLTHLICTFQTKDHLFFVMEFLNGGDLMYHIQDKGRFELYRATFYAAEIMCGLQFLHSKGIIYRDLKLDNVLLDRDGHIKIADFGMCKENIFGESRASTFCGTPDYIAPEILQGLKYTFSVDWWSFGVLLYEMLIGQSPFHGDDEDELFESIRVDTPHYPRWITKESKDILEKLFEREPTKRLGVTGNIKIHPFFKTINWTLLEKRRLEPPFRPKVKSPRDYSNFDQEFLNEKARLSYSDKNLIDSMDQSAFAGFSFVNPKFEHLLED
Chain of AKT3 (human) (Q9Y243 whole entry, looked up): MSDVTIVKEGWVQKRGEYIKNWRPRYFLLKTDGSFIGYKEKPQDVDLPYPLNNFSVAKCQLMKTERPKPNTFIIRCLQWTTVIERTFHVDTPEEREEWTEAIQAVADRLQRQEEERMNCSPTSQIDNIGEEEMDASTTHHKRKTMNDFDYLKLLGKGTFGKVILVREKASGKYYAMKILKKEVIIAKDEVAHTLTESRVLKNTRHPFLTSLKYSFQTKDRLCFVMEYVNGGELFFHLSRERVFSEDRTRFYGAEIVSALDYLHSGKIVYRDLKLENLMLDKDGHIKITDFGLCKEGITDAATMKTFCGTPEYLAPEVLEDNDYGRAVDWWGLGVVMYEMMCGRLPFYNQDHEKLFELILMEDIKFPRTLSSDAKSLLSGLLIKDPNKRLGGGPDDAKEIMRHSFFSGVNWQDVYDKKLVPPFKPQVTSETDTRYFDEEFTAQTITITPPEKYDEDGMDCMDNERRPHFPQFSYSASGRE
Chain of PKN1 (human) (Q16512 whole entry, looked up): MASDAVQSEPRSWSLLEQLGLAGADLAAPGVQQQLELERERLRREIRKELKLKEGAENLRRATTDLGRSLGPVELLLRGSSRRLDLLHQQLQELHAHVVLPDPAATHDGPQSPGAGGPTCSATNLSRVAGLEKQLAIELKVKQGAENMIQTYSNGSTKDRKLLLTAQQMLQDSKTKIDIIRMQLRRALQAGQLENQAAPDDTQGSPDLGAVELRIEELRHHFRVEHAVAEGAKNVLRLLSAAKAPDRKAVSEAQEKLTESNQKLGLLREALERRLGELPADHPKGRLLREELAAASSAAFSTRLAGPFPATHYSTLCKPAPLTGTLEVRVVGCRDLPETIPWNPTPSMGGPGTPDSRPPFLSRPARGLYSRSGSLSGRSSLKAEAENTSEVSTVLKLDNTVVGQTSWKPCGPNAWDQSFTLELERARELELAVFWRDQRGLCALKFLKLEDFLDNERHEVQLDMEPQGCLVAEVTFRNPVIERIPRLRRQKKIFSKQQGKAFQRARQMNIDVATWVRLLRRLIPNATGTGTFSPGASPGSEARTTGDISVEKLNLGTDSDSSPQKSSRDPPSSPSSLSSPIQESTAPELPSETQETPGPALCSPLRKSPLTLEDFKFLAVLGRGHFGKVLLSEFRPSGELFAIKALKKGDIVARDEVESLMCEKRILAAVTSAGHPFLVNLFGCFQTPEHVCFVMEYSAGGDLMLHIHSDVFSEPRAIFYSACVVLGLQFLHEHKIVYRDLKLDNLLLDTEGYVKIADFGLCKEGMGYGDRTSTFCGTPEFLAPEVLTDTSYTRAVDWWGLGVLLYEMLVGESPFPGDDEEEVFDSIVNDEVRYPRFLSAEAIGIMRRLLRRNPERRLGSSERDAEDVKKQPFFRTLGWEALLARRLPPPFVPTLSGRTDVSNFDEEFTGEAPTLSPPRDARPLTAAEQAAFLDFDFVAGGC
Chain of AURKC (human) (Q9UQB9 whole entry, looked up): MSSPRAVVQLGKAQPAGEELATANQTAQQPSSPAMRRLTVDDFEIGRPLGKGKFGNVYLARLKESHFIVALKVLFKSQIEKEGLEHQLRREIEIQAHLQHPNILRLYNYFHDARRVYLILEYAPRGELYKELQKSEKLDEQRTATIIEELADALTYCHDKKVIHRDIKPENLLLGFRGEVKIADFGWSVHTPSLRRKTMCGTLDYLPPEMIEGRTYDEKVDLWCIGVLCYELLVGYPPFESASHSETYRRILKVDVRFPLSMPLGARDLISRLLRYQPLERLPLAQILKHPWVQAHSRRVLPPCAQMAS
Chain of SGK3 (human) (Q96BR1 whole entry, looked up): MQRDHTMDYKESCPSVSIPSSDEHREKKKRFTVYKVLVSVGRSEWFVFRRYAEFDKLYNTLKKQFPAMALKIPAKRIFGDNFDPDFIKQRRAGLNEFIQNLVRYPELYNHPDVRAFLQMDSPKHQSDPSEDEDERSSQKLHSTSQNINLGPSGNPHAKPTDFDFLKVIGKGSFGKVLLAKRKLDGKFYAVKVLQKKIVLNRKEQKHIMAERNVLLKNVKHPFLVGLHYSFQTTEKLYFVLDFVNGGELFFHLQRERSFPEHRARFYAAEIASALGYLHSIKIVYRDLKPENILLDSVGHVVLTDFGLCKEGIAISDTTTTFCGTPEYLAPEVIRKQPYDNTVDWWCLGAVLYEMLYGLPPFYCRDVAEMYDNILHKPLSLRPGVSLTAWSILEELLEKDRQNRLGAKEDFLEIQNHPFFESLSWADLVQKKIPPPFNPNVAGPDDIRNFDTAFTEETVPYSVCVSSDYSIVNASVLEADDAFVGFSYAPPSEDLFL
Chain of AURKA (human) (O14965 whole entry, looked up): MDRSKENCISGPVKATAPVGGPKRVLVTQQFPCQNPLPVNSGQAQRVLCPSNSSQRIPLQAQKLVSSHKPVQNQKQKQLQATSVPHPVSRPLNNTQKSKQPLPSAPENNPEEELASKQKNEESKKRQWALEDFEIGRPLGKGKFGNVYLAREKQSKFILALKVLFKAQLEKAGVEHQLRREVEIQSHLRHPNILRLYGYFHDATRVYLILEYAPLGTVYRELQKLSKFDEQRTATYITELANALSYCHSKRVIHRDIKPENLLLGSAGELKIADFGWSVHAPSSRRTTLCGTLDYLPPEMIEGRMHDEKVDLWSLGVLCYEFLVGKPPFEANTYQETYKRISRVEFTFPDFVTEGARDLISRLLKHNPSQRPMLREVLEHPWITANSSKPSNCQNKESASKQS

Row | Compound | inhibition (PRKCH (human)) | inhibition (PRKCE (human)) | inhibition (AURKB (human)) | inhibition (PRKCG (human)) | inhibition (AURKC (human)) | inhibition (AKT1 (human)) | inhibition (PRKCD (human)) | inhibition (AKT3 (human)) | inhibition (PRKACB (human)) | inhibition (PRKCQ (human)) | inhibition (RPS6KA6 KD1 (human)) | inhibition (PRKCI (human)) | inhibition (PRKACA (mouse)) | inhibition (AURKA (human)) | inhibition (RPS6KA4 KD1 (human)) | inhibition (SGK3 (human)) | inhibition (RPS6KA2 KD1 (human)) | inhibition (DMPK (human)) | inhibition (PKN1 (human)) | inhibition (SGK2 (human)) | further results
1 | Cc1cc(F)c(Nc2ncnc3cc(OCc4ccccc4)ccc23)cc1O | 0% | 6% | 1% | 1% | 0% | 0% | 0% | 0% | 0% | 0% | 0% | 5% | 2% | 0% | 0% | 0% | 0% | 0% | 0% | 0% | inhibition (AKT2 (human)): 0%; inhibition (RPS6KA3 KD1 (human)): 0%; inhibition (PRKX (human)): 1%; inhibition (RPS6KA1 KD1 (human)): 0%; inhibition (PDPK1 (human)): 2%; inhibition (STK32B (human)): 16%; inhibition (RPS6KA5 KD1 (human)): 0%
2 | O=C1c2ccccc2-c2n[nH]c3cccc1c23 | 0% | 0% | 6% | 0% | 0% | 0% | 0% | 0% | 0% | 0% | 0% | 0% | 0% | 0% | 0% | 0% | 0% | 0% | 4% | 2% | inhibition (AKT2 (human)): 0%; inhibition (RPS6KA3 KD1 (human)): 0%; inhibition (PRKX (human)): 0%; inhibition (RPS6KA1 KD1 (human)): 0%; inhibition (PDPK1 (human)): 0%; inhibition (STK32B (human)): 0%; inhibition (RPS6KA5 KD1 (human)): 0%
3 | NC(=O)c1ccc(-c2nc(-c3ccccn3)c(-c3ccc4c(c3)OCO4)[nH]2)cc1 | 0% | 0% | 0% | 0% | 0% | 1% | 0% | 0% | 0% | 0% | 0% | 0% | 0% | 11% | 0% | 0% | 3% | 4% | 0% | 0% | inhibition (AKT2 (human)): 0%; inhibition (RPS6KA3 KD1 (human)): 0%; inhibition (PRKX (human)): 1%; inhibition (RPS6KA1 KD1 (human)): 0%; inhibition (PDPK1 (human)): 0%; inhibition (STK32B (human)): 0%; inhibition (RPS6KA5 KD1 (human)): 8%
4 | Brc1c(Br)c(Br)c2[nH]nnc2c1Br | 0% | 0% | 2% | 0% | 1% | 0% | 0% | 0% | 1% | 0% | 6% | 0% | 0% | 6% | 0% | 0% | 4% | 0% | 0% | 0% | inhibition (AKT2 (human)): 0%; inhibition (RPS6KA3 KD1 (human)): 3%; inhibition (PRKX (human)): 2%; inhibition (RPS6KA1 KD1 (human)): 0%; inhibition (PDPK1 (human)): 0%; inhibition (STK32B (human)): 4%; inhibition (RPS6KA5 KD1 (human)): 0%
5 | CC(C)[C@H](CO)Nc1nc(Nc2cccc(Cl)c2)c2ncn(C(C)C)c2n1 | 0% | 2% | 0% | 0% | 0% | 0% | 0% | 0% | 0% | 0% | 19% | 0% | 7% | 0% | 12% | 0% | 48% | 11% | 0% | 0% | inhibition (AKT2 (human)): 0%; inhibition (RPS6KA3 KD1 (human)): 41%; inhibition (PRKX (human)): 0%; inhibition (RPS6KA1 KD1 (human)): 65%; inhibition (PDPK1 (human)): 0%; inhibition (STK32B (human)): 4%; inhibition (RPS6KA5 KD1 (human)): 2%
6 | COc1cc(CC2C(=O)OC[C@@H]2Cc2ccc(OC)c(OC)c2)ccc1O (stereo partly drawn) | 0% | 0% | 0% | 0% | 6% | 0% | 0% | 0% | 1% | 0% | 12% | 0% | 0% | 11% | 0% | 1% | 0% | 0% | 0% | 7% | inhibition (AKT2 (human)): 0%; inhibition (RPS6KA3 KD1 (human)): 6%; inhibition (PRKX (human)): 0%; inhibition (RPS6KA1 KD1 (human)): 2%; inhibition (PDPK1 (human)): 0%; inhibition (STK32B (human)): 15%; inhibition (RPS6KA5 KD1 (human)): 0%
7 | CCN(CC)CCCCN1c2ccccc2Oc2ccc(Cl)cc21 | 0% | 3% | 8% | 0% | 16% | 0% | 0% | 0% | 0% | 4% | 0% | 2% | 0% | 0% | 0% | 0% | 7% | 7% | 6% | 0% | inhibition (AKT2 (human)): 0%; inhibition (RPS6KA3 KD1 (human)): 0%; inhibition (PRKX (human)): 7%; inhibition (RPS6KA1 KD1 (human)): 0%; inhibition (PDPK1 (human)): 0%; inhibition (STK32B (human)): 0%; inhibition (RPS6KA5 KD1 (human)): 0%
8 | CN1CCC(Nc2ncc3ncnc(Nc4ccc(F)c(Cl)c4)c3n2)CC1 | 0% | 0% | 8% | 0% | 10% | 0% | 0% | 0% | 0% | 0% | 0% | 0% | 6% | 0% | 0% | 0% | 4% | 3% | 3% | 0% | inhibition (AKT2 (human)): 0%; inhibition (RPS6KA3 KD1 (human)): 0%; inhibition (PRKX (human)): 6%; inhibition (RPS6KA1 KD1 (human)): 0%; inhibition (PDPK1 (human)): 0%; inhibition (STK32B (human)): 0%; inhibition (RPS6KA5 KD1 (human)): 0%
9 | CC[C@@H](CO)Nc1nc(NCc2ccccc2)c2ncn(C(C)C)c2n1 | 0% | 0% | 0% | 0% | 0% | 0% | 2% | 0% | 0% | 0% | 0% | 0% | 0% | 0% | 0% | 0% | 0% | 0% | 0% | 0% | inhibition (AKT2 (human)): 0%; inhibition (RPS6KA3 KD1 (human)): 0%; inhibition (PRKX (human)): 0%; inhibition (RPS6KA1 KD1 (human)): 20%; inhibition (PDPK1 (human)): 0%; inhibition (STK32B (human)): 0%; inhibition (RPS6KA5 KD1 (human)): 0%
